Experimental findings from article PMC10714399, “Open Source Antibiotics: Simple Diarylimidazoles Are Potent against Methicillin-Resistant Staphylococcus aureus” (ACS Infectious Diseases, 2023) are described below.

Structures are written as SMILES. Values after ≈ are worked out from the molar mass of the structure shown. Read-outs that look alike come from different tables or passages of the source.

One series has as its system VSE. Nature of the series: In vitro antibacterial activity, MIC, VSE. Format: cell-based.
The subject of series [1] is Staphylococcus aureus ATCC 43300 MRSA. Nature of the series: CO-ADD antibacterial assay (growth inhibition, MIC), MRSA. Format: cell-based. The note with it: read-out: MRSA MIC (CO-ADD). The protocol: Hit Confirmation of active compounds by whole cell growth inhibition assays was conducted as an 8-point dose response to determine the Minimum Inhibitory Concentration (MIC), in duplicate (n=2). The inhibition of growth is measured against those microorganisms that […]
Included in the Hit Confirmation were 5 bacteria: Escherichia coli, Klebsiella pneumoniae, Acinetobacter baumannii, Pseudomonas aeruginosa and Staphylococcus aureus, and 2 fungi Candida albicans and Cryptococcus neoformans. […]
Assay Parameters Bacteria Fungi HEK293 Haemolysis […]
Duplicate (n=2) Duplicate (n=2) Duplicate (n=2) Duplicate (n=2)
QC Control MIC: Control MIC: Control CC50: Control HC10:
Non-Binding Non-Binding TC, 384-well Polypropylene
Plates Surface (NBS), Surface (NBS), black wall/clear 384-well and 384-well plate 384-well plate bottom polystyrene 384-
Cation-adjusted Yeast Nitrogen DMEM
Media Mueller Hinton Base supplemented 0.9% NaCl
Hit Confirmation outcomes are detailed in individual Project reports, personalised for each Project Submission for each CO-ADD user.
Please see your data sheet with file extension P0XXX_HC_data.xlsx, for example CO-ADD Project P0100, P0100_HC_data.xlsx
Study: HC_data ID: HC-Procedures & Materials
Date: Last updated June 2018 Confidential Page 3 of 11
(1 picture or pasted object on this page, not shown here)
Samples were provided by the collaborator and stored frozen at -20 °C. Samples were prepared in DMSO and water to a final testing concentration of 32 µg/mL or 20 µM (unless otherwise indicated in the data sheet) and serially diluted 1:2 fold for 8 times. Each sample concentration was prepared in 384-well plates, non-binding surface plate (NBS; Corning 3640) for each bacterial/fungal strain, tissue-culture treated (TC-treated; Corning 3712/3764) black for mammalian cell types and polypropylene 384-well (PP; Corning 3657) for haemolysis assays, all in duplicate (n=2), and keeping the final DMSO concentration to a maximum of 0.5%. All the sample preparation was done using liquid handling robots. […]
detailed in the Data sheet for the individual Project.
All bacteria were cultured in Cation-adjusted Mueller Hinton broth (CAMHB) at 37 °C overnight. A sample of each culture was then diluted 40-fold in fresh broth and incubated at 37 °C for 1.5-3 h. The resultant mid-log phase cultures were diluted (CFU/mL measured by OD600), then added to each well of the compound containing plates, giving a cell density of 5×10^5 CFU/mL and a total volume of 50 µL. All the plates were covered and incubated at 37 °C for 18 h without shaking.
Inhibition of bacterial growth was determined measuring absorbance at 600 nm (OD600), using a Tecan M1000 Pro monochromator plate reader. The percentage of growth inhibition was calculated for each well, using the negative control (media only) and positive control (bacteria without inhibitors) on the same plate as references.
The percentage of growth inhibition was calculated for each well, using the negative control (media only) and positive control (bacteria without inhibitors) on the same plate. The MIC […]
by an inhibition ≥ 80%. In addition, the maximal percentage of growth inhibition is reported as DMax, indicating any compounds with partial activity.
Date: Last updated June 2018 Confidential Page 5 of 11
Material Code Brand/Supplier Cat No.
Compound preparation plate, Polypropylene PP Corning 3364
Assay Plates – Antimicrobial
Non-binding surface NBS 384w Corning 3640
Assay Plates – Cytotoxicity
Tissue culture treated Black/Clear bottom 384w Corning 3712
Assay Plates - Haemolysis PP-Haem Corning 3657 […]
Growth media - bacteria CAMHB Bacto Laboratories 212322
Culture agar - fungi YPD Becton Dickinson 242720
Growth media - fungi YNB Becton Dickinson 233520
Resazurin Sigma-Aldrich R7017
Dulbecco's Modified Eagle Medium DMEM Life Technologies 11995-073
Foetal Bovine Serum FBS Bovogen FFBS-500
0.9% NaCl Saline Baxter AHF7124
Sample Name Sample ID MW Conc. Solvent Source […]

The nature of series [2]: Rat hepatocyte intrinsic clearance. Format: in vitro ADME. The note with it: rat hepatocytes, NEU; read-out: Rat Hep CLint (NEU).

`c1ccc(-c2nc3n(c2-c2ccc4sccc4c2)CCC3)nc1` [OSA_000822]: the MIC (as a rule, the lowest concentration that inhibits growth of the organism) in the series with VSE (read-out: VSE MIC (UCL)) worked out at 4 µg/mL (≈ 12.6 µM); in series [1] it was 2 µg/mL (≈ 6.3 µM). Besides, the hepatocyte CLint in series [2] is > 300 µL/min/1e6 cells.
As for `c1ccc(-c2nc3n(c2-c2ccc4occc4c2)CCC3)nc1` [compound 821], the MIC in series [1] came out at 4 µg/mL (≈ 13.3 µM). In addition, the hepatocyte CLint in series [2] was determined as 13.6 µL/min/1e6 cells.
Consider `c1ccc(-c2nc3n(c2-c2ccc4sccc4c2)CCC3)nc1` [compound 822], for which the MIC in the series with VSE (read-out: VSE MIC) turned out to be 4 µg/mL (≈ 12.6 µM).
